From patent US4622422A, “Cyclohexanealkanoic acids” (Merrell Dow Pharmaceuticals Inc., priority 1985, dated 1986)

Experiments:
[1] = molecular target: T1, leukotriene D4 (longitudinal muscle of guinea pig ileum) (Cavia porcellus, UniProt Q2NNR5); test: Longitudinal Muscle of Guinea Pig Ileum; antagonism of LTD4-induced contraction; format: cell-based; details: 1 μM Indomethacin, 15 min with test agent, then cumulative LTD4, Arunlakshana and Schild, read-out: G.P. ILEUM pA2 (LTD4) (converted)
T1 construct: The longitudinal muscle was then carefully dissected from the circular muscle of the ileum; from tissue; host or cells: guinea pig ileum, longitudinal muscle segments
T1 sequence (Q2NNR5 1-340): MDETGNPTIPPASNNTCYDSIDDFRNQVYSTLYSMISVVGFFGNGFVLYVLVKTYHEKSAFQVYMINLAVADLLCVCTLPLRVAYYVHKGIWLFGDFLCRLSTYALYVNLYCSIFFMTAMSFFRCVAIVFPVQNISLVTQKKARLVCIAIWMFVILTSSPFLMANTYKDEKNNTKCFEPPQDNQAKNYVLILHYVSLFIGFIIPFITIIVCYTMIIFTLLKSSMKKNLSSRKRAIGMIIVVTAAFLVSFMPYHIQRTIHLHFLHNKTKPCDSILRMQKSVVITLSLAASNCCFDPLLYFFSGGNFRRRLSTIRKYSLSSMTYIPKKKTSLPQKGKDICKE
Method: Male, Hartley-Duncan, guinea pigs were sacrificed by cervical dislocation. The terminal portion of the ileum was removed, rinsed, and placed in Burn's modified Tyrode's solution. The longitudinal muscle was then carefully dissected from the circular muscle of the ileum. The longitudinal muscle was cut into 1-2 cm. segments which were placed in a tissue bath containing oxygenated Burn's modified Tyrode's solution warmed to 37° C. A tension of 1.0 gram was then placed on each segment of muscle. After equilibration for 1 hour, 1 μM Indomethacin was added to each bath. After 5 minutes, each tissue segment was then exposed to a concentration of 60 nM leukotriene D4. This response was then considered to be the initial maximal contraction that each segment will produce. After washing the tissue several times, over a 1 hour period, 1 μM Indomethacin was again added to each bath. After a 5 minute period the test agent or vehicle was added to the bath. After 15 minutes, a concentration-response curve was generated using cumulatively increasing concentrations of leukotriene D4. The concentration-response was then compared to the initial maximum contraction. A test compound was considered active, if at concentrations up to 100 μM, it produces a significant shift to the right of the concentration-response relationship to leukotriene D4. The antagonist activity was quantitated in terms of a pA2 value calculated according to the method described by Arunlakshana and Schild, (Brit. J. Pharmac. Chemotherap. 14; 48, 1959).

[2] = molecular target: T2, 3H-LTD4 specific receptor (guinea pig lung membranes) (Cavia porcellus, UniProt Q2NNR5); test: 3H-LTD4 - Specific Receptor Binding in Guinea Pig Lung Membranes; details: inhibition of 3H-LTD4 specific binding; pH 7.6, 37° C., 20-40 min; read-out: G.P. LUNG SPECIFIC BINDING IC50
T2 construct: from tissue; host or cells: guinea pig lung membranes (30,000 g pellet)
T2 sequence (Q2NNR5 1-340): T1 sequence (Q2NNR5 1-340)
Method: Male guinea pigs were sacrificed and the lungs were removed and placed in ice cold 50 mM Tris-HCl buffer, pH 7.4. The lungs were then homogenized with a Polytron homogenizer and the homogenate was centrifuged at 1000 g for 10 minutes at 4° C. The supernatant was then centrifuged at 30,000 g for 15 minutes at 4° C. to obtain the membrane pellet. This pellet was resuspended in 50 mM Tris-HCl to provide the working suspension of lung membranes. Binding assays were then carried out in 50 mM Tris-HCl at pH 7.6 and 37° C. using incubation periods of 20-40 min. Separation of bound ^3 H-LTD4 from free ^3 H-LTD4 were performed by rapid vacuum filtration through Whatman GF/B glass fiber filters using ice cold Tris-HCl buffer and three 4 ml washes. Filtration and washing were completed in less than 8 seconds. The radioactivity on the filters was then measured. Specific binding of ^3 H-LTD4 was defined as the binding of ^3 H-LTD4 in the absence of unlabelled LTD4 minus the binding of ^3 H-LTD4 in the presence of 2×10^-7 M unlabelled LTD4. Specific binding of ^3 H-LTD4 was 60-80% of total binding. […] In these tests increasing concentrations of the agent are used to block the ^3 H-LTD4 specific binding. The concentration that reduces the specific binding of ^3 H-LTD4 by 50% is termed the IC50.

leukotriene D4 = test: In vivo leukotriene D4 antagonist activity in anesthetized guinea pigs (modified Konzett-Rossler preparation); set-up: species or system guinea pig; details: 10-20 min before 1 μg/ml LTD4 aerosol (1 min), inflation pressure response
Method: Compounds of the present invention were also tested for in vivo leukotriene D4 antagonist activity in anesthetized guinea pigs using a modified Konzett-Rossler preparation. Specifically, the guinea pigs were anesthetized with sodium pentobarbital and surgically prepared for artificial ventilation by a constant volume respirator. The inflation pressure produced by the respirator was measured for each inflation of the guinea pigs' lungs. Increases in inflation pressure above baseline are indicative of bronchoconstriction. After establishing a baseline inflation pressure, the guinea pig was exposed for 1 minute to an aerosol generated ultrasonically from a 1 μg/ml solution of leukotriene D4. After the inflation pressure returned to baseline, the guinea pig was exposed to an aerosol generated from a solution of a test compound. Ten to twenty minutes later, the guinea pig was re-exposed to a 1 minute aerosol generated from 1 μg/ml leukotriene D4. This response was then compared to the initial response and the % inhibition of the response was determined.

CCCCCCCCCCCCC/C=C1\CC[C@@H](CC(=O)O)[C@H](O)[C@H]1SCCC(=O)O (relative stereo) [Example 15B, (1α,2β,3α,4E)-3-[(2-Carboxyethyl)thio]-2-hydroxy-4-tetradecylidenecyclohexaneacetic acid] was tested, and the Kb [1] was 3090 nM, the IC50 [2] was 400 nM and the “PERCENT INHIBITION” value (leukotriene D4; 5 mg/ml solution aerosolized) was 44.3%.

With CCCCCCCCCCCCC/C=C1\CC[C@@H](CCC(=O)O)[C@@H](O)[C@@H]1SCCC(=O)O (relative stereo) [Example 15D, (1α,2α,3β,4E)-3-[(2-Carboxyethyl)thio]-2-hydroxy-4-tetradecylidenecyclohexanepropionic acid] the Kb [1] was 2000 nM.

Compound CCCCCCCCCCCCC/C=C1\CC[C@@H](CCC(=O)O)[C@@H](O)[C@@H]1SCC(=O)O (relative stereo) [Example 15C, (1α,2α,3β,4E)-3-[(Carboxymethyl)thio]-2-hydroxy-4-tetradecylidenecyclohexanepropionic acid] has a Kb [1] of 1620 nM.

Compound CCCCCCCCCCCCC/C=C1\CC[C@@H](CC(=O)O)[C@@H](O)[C@H]1SCC(=O)O (relative stereo) [Example 18, (1α,2α,3α,4E)-3-[(carboxymethyl)thio]-2-hydroxy-4-tetradecylidenecyclohexaneacetic acid] has a Kb [1] of 30900 nM.

For CCCCCCCCCCCCC/C=C1\CC[C@@H](CC(=O)O)[C@H](O)[C@H]1SCC(=O)O (relative stereo) [Example 15A, (1α,2β,3α,4E)-3-[(carboxymethyl)thio]-2-hydroxy-4-tetradecylidenecyclohexaneacetic acid], the Kb [1] was 3390 nM, the IC50 [2] was 3000 nM and the “PERCENT INHIBITION” value (leukotriene D4; 5 mg/ml solution aerosolized) was 25.3%. The “PERCENT INHIBITION” value (leukotriene D4; 10 mg/ml solution aerosolized) was 64.2%.

CCCCCCCCCCCCC/C=C1\CC[C@@H](CCC(=O)O)[C@H](O)[C@H]1SCC(=O)O (relative stereo) [Example 15E, (1α,2β,3α,4E)-3-[(Carboxymethyl)thio]-2-hydroxy-4-tetradecylidenecyclohexanepropionic acid] gave a Kb [1] of 2240 nM.
